Measurements published in patent US9393317B2, “Peptide-conjugated oligonucleotide therapeutic and method of making and using same” (Sloan-Kettering Institute for Cancer Research, priority 2008, dated 2016).
{C6NH2} = C6-amino linker; d = 2'-deoxy (DNA); m = 2'-O-methyl

Columns and labels:
[1] = test system: HUVEC; experiment: Wound healing (scratch) assay; format: cell-based, human; details: 200 nM, 72 h treatment, 22 h after scratch
Description: HUVEC (4th passage) were seeded 100,000 cells into the wells of a fibronectin coated two-well chamber slides (BD Bioscience). Medium was exchanged after 18 h with standard medium containing either F3-ASO conjugates or ASO at a concentration of 200 nM. The treatment was repeated every 24 h for two more days. 72 h after starting the treatment a scratch was applied with a micropipette-tip. Media was removed the cell-layer once washed with PBS and media containing the F3-conjugate or the control ASO was added. The chamber slides were incubated at 37° C. with 5% CO2 for 22 h. The cells were washed with PBS, fixed with 4% paraformaldehyde in PBS for 20 min at r.t., and washed twice with PBS. The slides were mounted and images were taken under a light microscope to access the grade of closure of the applied scratch.
HUVEC were plated in fibronectin coated two-well chamber slides (BD Bioscience) at 2.5×10^4 cells/well. Growth media was supplemented with 200 nM Id1-PCAO (or Id1-AO) and renewed every 24 h. 72 h after plating a scratch was applied using a 20 μl pipette tip. Chambers were washed with media and supplemented media was added. 18 h after the scratch was applied, cells were fixed and imaged.

[2] = test system: endothelial cells (HUVECs and the murine endothelioma cell line EOMA); experiment: Uptake of fluorescence labeled Id1-PCAO by endothelial cells, confocal fluorescence microscopy; format: cell-based; details: 200 nM, no lipid or other carrier
Description: In order to determine if the Id1 PCAO retained the homing specificity of the F3 peptide and could be taken up by cells in the absence of lipid or other specialized carrier, fluorescence labeled Id1-PCAOs were supplied to different cell lines at a concentration of 200 nM. […] Fluorescein and tetra methyl-rhodamine red labeled PCAOs were also tested to control for the effects of the fluorophore and similar results were obtained. To rule out effects from the fixation process we performed epifluorescence live imaging on viable HUVECs and HeLa cells and similar results were observed.
HUVEC were seeded 24 h prior to transfection at 10^5 cells/well in six-well MWDs in standard growth media (EGM-2) without antibiotics. At the day of transfection the AO-conjugates and control oligos were diluted in EGM-2 to the indicated concentration. Media was replaced with the supplemented EGM-2. The procedure was repeated every 24 h for two more days, samples were drawn at the indicated time points and analyzed via western blot. Other cell lines were treated similarly, with the exception that Id1-PCAO was added to standard growth media, DME or RPMI 1640 in accordance to cell type. Uptake studies in different cell lines with fluorescence labeled Id1-PCAO were performed in both the standard growth media (DME, RPMI 1640 or EGM-2) or in OptiMEM I (supplemented with 2% FBS) to control for media effects.

[3] = test system: Id1; experiment: Down-regulation of Id1 in tumor endothelium of MMTV-HER2/neu (YD) breast carcinoma, IHC; format: in vivo, mouse
Description: Homing studies were also performed in animals bearing spontaneous tumors in MMTV-HER2/neu (YD) and PTEN+/− backgrounds. […] To test if the PCAOs down-regulate Id1 protein levels in vivo, tumor bearing transgenic MMTV-HER2/neu (YD) Id1+/− mice were injected intravenously with Id1-PCAOs. Since repeated application of the drug was necessary to yield significant down-regulation in vitro, the animals were treated with […] of Id1-PCAO or Id1-AO for three consecutive days. Over 80% of tumor vessels in animals treated with Id1-PCAO were completely negative for Id1 expression by IHC.
YD neu transgenic animals bearing breast carcinoma were treated for 3 subsequent days with 25 nmol of either Id1-ASO or F3-Id1-ASO conjugate in PBS by i.v. injection. 24 h after the last injection animals were sacrificed, the tumor removed, fixed in paraformaldehyde and embedded in parafine. IHC staining was performed for Id1 (antibody C-20, SantaCruz Biotechnology, Santa Cruz, Calif.) on sections.

GCACCagctccttgaggcGUGAG (antisense GCACCAGCTCCTTGAGGCGUGAG; sugars from the 5' end m5 d13 m5, 5' {C6NH2}, backbone and methylation of C not given here; DNA gap phosphorothioate linked, F3 peptide conjugate form, further chemistry not fully specified) [Id1-AO, ID No. 2]
closure of the applied scratch [1]: closed completely
uptake / internalization into endothelial cells [2]: no internalization was observed
down-regulation of Id1 in tumor vessels ([3]; MMTV-HER2/neu (YD) Id1+/− mice, 15 nmol/d i.v., three consecutive days): no detectable down-regulation of Id1
Id1 expression in tumor endothelium, IHC ([3]; YD neu transgenic animals, 25 nmol i.v., 3 subsequent days, 24 h after last injection): no effect
